Test results reported in the RepoRT retention time repository.

Assay: Agilent ZORBAX 300 SB-C18, 150 × 1 mm, 3.5 µm; A: water + 0.01% heptafluorobutyric acid; B: acetonitrile + 0.01% heptafluorobutyric acid; gradient (min/%B) 0/0 100/90
Conditions: stereoisomer not certain

| Compound | LC retention time [min] |
| --- | --- |
| CC(C)Cc1ccc(C(C)C(=O)NCCCn2c3ccccc3c3ccccc32)cc1 (stereo unspecified) | 20.1 |
| COc1ccc2occ(C(=O)c3ccccc3C)c(=O)c2c1 | 14.2 |
| CCOc1ccccc1CNC(N)=O | 9.32 |
| c1c[nH]cn1 | 2.95 |
| CN(C)CCCNC(=O)C(=O)NC1CC1 | 6.89 |
| c1ccc2c(c1)Cc1cc3ccccc3nc1-2 | 11.4 |
| Cc1nc(C)c(C)nc1C | 7.72 |
| COc1cccc(OCCN)c1 | 8.13 |
| O=C1c2ccccc2C(=O)N1CCN1CCNCC1 | 8.07 |
| Cc1ccc(N2C3=C(C(=O)CC(C)(C)C3)C(c3ccccc3)C3=C2c2ccccc2C3=O)cc1 (stereo unspecified) | 18.4 |
| CCN(CC)CCOC(=O)c1ccc(N)cc1 | 8.41 |
| CCc1ccc(C2Nc3ccccc3C(=O)N2c2ccc(N(C)C)cc2)cc1 (stereo unspecified) | 13.7 |
| CCC(C)N1CNc2c(c(=O)[nH]c(=O)n2-c2ccc(C)c(C)c2)C1 (stereo unspecified) | 8.26 |
| CC1(C)CC(N2CN(C3CCCCC3)CC2=O)CC(C)(C)N1 | 8.03 |
| Cc1ccc(C)n1Cc1ccccc1 | 16.8 |
| CN(CCCN)CCCN | 7.45 |
| COCCCN1CCC(CN)C1 (stereo unspecified) | 7.37 |
| NCCCNCCNCCCN | 7.73 |
| Cc1cc(C(=O)N2CCCCC2)c2c(=O)n(CC(=O)N3CCc4ccccc43)c(=O)n(C)c2n1 | 13.5 |
| CCCCCCCCC(N)=O | 12.4 |
| CN(C)c1ccc(N)cc1 | 6.86 |
| Nc1cccc(CCC(=O)O)c1 | 7.06 |
| Cc1ccc(CCC(=O)O)cc1N | 7.58 |

| Compound | LC retention time [min] |
| --- | --- |
| C=CN1CCCC1=O | 7.85 |
| NC(=O)CCN1CCNCC1 | 6.16 |
| Cc1ccc(C2C3=C(CC(C)(C)CC3=O)NC3=C2C(=O)CC(C)(C)C3)cc1 | 13.2 |
| O=C1OCc2c1[nH]c(=O)[nH]c2=O | 1.27 |
| c1ccc(CN2CCN(Cc3ccccc3)C2c2cccs2)cc1 | 11 |
| NC(=O)CCCCCCCCCC(Cc1ccccc1)C(=O)O (stereo unspecified) | 13.3 |
| Cn1c(=O)cc(C(=O)O)[nH]c1=O | 1.57 |
| NCCCCCCN | 6.78 |
| COc1cc(NC(C)=O)cc(OC)c1OC | 8.42 |
| O=CC1CCN(Cc2ccccc2)CC1 | 7.84 |
| O=c1[nH][nH]c2c1CCCC2 | 7.38 |
| O=CN1CCN(C=O)CC1 | 3.45 |
| Nc1ncc2c(n1)CCC2 | 6.96 |
| NC1=NC(=Nc2ccc(N3CCOCC3)cc2)c2ccccc21 | 9.27 |
| CNC(=S)C(=S)NC | 7.06 |
| CN(C)c1ccc(CNC2CC(C)(C)NC(C)(C)C2)cc1 | 8.12 |
| CC(=O)c1[nH]c2c(c1C)C(=O)CCC2 | 8.48 |
| Cc1cc(C(c2cc(C)c(N)c(C)c2)c2ccco2)cc(C)c1N | 12.1 |
| CNC1C(OC2C(OC3C(O)C(O)C(N=C(N)N)C(O)C3N=C(N)N)OC(C)C2(O)C=O)OC(CO)C(O)C1O (stereo unspecified) | 7.82 |
| O=C(O)CCCCC1SCC2NC(=O)NC21 (stereo unspecified) | 7.67 |
| CC(C)Cn1c2ccccc2c2ccccc21 | 19.5 |
| COC(=O)C(c1ccccc1)C1CCCCN1 (stereo unspecified) | 9.49 |
| Cc1ccccc1N1C(=O)c2ccc(C(=O)O)cc2C1=O | 12 |

| Compound | LC retention time [min] |
| --- | --- |
| CC(NC(=O)c1ccccc1)C(=O)O (stereo unspecified) | 8 |
| CC(=O)NNc1nc(C)cc(C)n1 | 6.5 |
| CC1(C)CC(NC(=O)c2ccccc2C(=O)NC2CC(C)(C)NC(C)(C)C2)CC(C)(C)N1 | 7.61 |
| NC(=O)NNC(=S)Nc1ccccc1 | 7.03 |
| NC1CCCCCC1 | 7.85 |
| c1ccc2c3c([nH]c2c1)CCCC3 | 15.7 |
| COc1ccc(Cc2c(O)n(C)c(=O)n(C)c2=O)c(OC)c1OC | 11.2 |
| CN(C)CCCOc1nn(Cc2ccccc2)c2ccccc12 | 11.2 |
| CCNC(=S)N1CCCC(C(N)=O)C1 (stereo unspecified) | 7.41 |
| NCCCc1ccccn1 | 6.8 |
| COc1ccc(-c2cc(=O)c3cc(C)cc(C)c3o2)cc1OC | 15.2 |
| CCCCCCN(C)CCCCCC | 11.9 |
| C=C(C)CC1C=CCC(CC(=C)C)N1Cc1ccccc1 (stereo unspecified) | 11.9 |
| O=CN1CCCCC1 | 7.47 |
| CCCCN(CCCC)C(=O)c1ccc(OC(C)=O)cc1 | 15.3 |
| CCCCNC(=O)NCCCC | 10.5 |
| Cn1c(=O)n(C)c(=O)n(CC(=O)N2CCCCC2)c1=O | 8.88 |
| NC(CCC(=O)OCc1ccccc1)C(=O)O (stereo unspecified) | 8.38 |
| CN(C)c1cccc(C(=O)O)c1 | 8.69 |
| CCCCCCCCCCOc1ccc(C(=O)NCCN2Cc3ccccc3C2=O)cc1 | 20.2 |
| Cc1ccc2[nH]c(=O)c(=O)[nH]c2c1C | 8.13 |
| COCCc1ccc(OCC(O)CNC(C)C)cc1 (stereo unspecified) | 9.27 |
| COC(=O)CCCCCN | 7.25 |

| Compound | LC retention time [min] |
| --- | --- |
| CNCCO | 2.61 |
| CN(C)CCC(C)(O)Cc1ccccc1 (stereo unspecified) | 8.38 |
| Cc1cc(C)c2c(CC(=O)NN(C)C)coc2c1 | 10.9 |
| CCCN1CCCCC1C(=O)Nc1c(C)cccc1C (stereo unspecified) | 9.88 |
| CC1(C)SC2C(NC(=O)C(N)c3ccc(O)cc3)C(=O)N2C1C(=O)O (stereo unspecified) | 7.52 |
| S=C1NCN(Cc2ccccc2)CN1 | 8.28 |
| Nc1ccc(N2CCOCC2)c(N)c1 | 7.33 |
| COC(=O)c1ccc(NC(=O)CC(=O)Nc2ccc(C(=O)OC)cc2)cc1 | 12.2 |
| c1ccc(CNCCc2csc3c2CCCC3)cc1 | 11.7 |
| CCCCN(C)C | 7.03 |
| Cc1ccc(C(=O)c2ccc(CC(=O)O)n2C)cc1 | 10.5 |
| CCCCCCC1(C)OCOC1=CC[N+](C)(C)C (stereo unspecified) | 10.8 |
| Cc1cccc(Cc2cnc[nH]2)c1C | 9.65 |
| C1CCCNCCC1 | 7.37 |
| CCC(C)C1(CC)C(=O)NC(=O)NC1=O (stereo unspecified) | 9.71 |
| C#CC(C)(N)CC (stereo unspecified) | 6.91 |
| Cc1ccc(-n2nc(-c3cn(C)nc3C)cc2-c2cn(C)nc2C)cc1 | 12 |
| CCCc1ccc(O)c(N)c1 | 8.64 |
| CC(N)CN(C)C (stereo unspecified) | 6.58 |
| COc1ccc(OC)c(NC(=O)Cn2c(=O)n(C)c(=O)n(C)c2=O)c1 | 10.7 |

Continued, values first:

| LC retention time [min] | Compound |
| --- | --- |
| 7.98 | O=C(Nc1cccc(C2=NCCN2)c1)Nc1cccc(C2=NCCN2)c1 |
| 7.79 | CN(CCc1ccccn1)Cc1ccccn1 |
| 13 | c1ccc(N2CCN(c3ccccc3)C2c2cccnc2)cc1 |
| 8.45 | c1ccc(Cc2nn[nH]n2)cc1 |
| 11.5 | COc1ccc2cnn(-c3ccccc3)c(=O)c2c1OC |
| 9.02 | CC(N)C(=O)Nc1ccc2ccccc2c1 (stereo unspecified) |
| 8.65 | Cc1cc(C)c2cccc(C)c2n1 |
| 10.4 | Nc1cccc(-c2cc3ccccc3oc2=O)c1 |
| 15.1 | Cc1ccc(C=C2C(=O)c3ccccc3C2=O)o1 |
| 13.5 | C#CC(C)(CC)NC(=O)C(=Cc1ccccc1)NC(=O)c1ccccc1 (stereo unspecified) |
| 8.85 | CN(C)CCCNC(=O)Nc1cccc2ccccc12 |
| 7.69 | Nc1nc2ccccc2[nH]1 |
| 9.17 | O=C(NCc1cccnc1)c1cccc2ccccc12 |
| 8.39 | OC12CC(Cc3cccnc31)c1ccccc12 (stereo unspecified) |
| 8.96 | CC(=O)Nc1ccc(C(=O)NCc2ccco2)cc1 |
| 12 | c1ccc2nc3c(nc2c1)[nH]c1ccccc13 |
| 15.4 | CN(C)c1ccc(C=NNC(=O)C(c2ccccc2)c2ccccc2)cc1 |
| 9.42 | NC(=O)CCCc1c[nH]c2ccccc12 |
| 10.7 | Cc1cc(C)nc(Nc2ccccc2C)n1 |
| 6.94 | O=c1nc(NN=Cc2cccnc2)cn[nH]1 |
| 6.88 | Cc1cncc(C)c1 |

| LC retention time [min] | Compound |
| --- | --- |
| 9.24 | Cc1cc2c(s1)Nc1ccccc1N=C2N |
| 12 | CC(=O)c1cccc(N2C(=O)C3CCCCC3C2=O)c1 (stereo unspecified) |
| 10.4 | CC(C)NCC(O)COc1cccc2ccccc12 (stereo unspecified) |
| 18.1 | Cc1ccc(C=Cc2nnc(-c3ccccc3C)o2)cc1 |
| 6.66 | Cc1ccc(C)nc1 |
| 10.1 | O=C(Cn1cnc2ccccc2c1=O)NN=Cc1cnc2ccccc2n1 |
| 6.97 | C=Cc1ccccn1 |
| 11.6 | Nc1ccc(C(=O)NN=Cc2cccc3ccccc23)cc1 |
| 8.83 | O=c1ccc2ccccc2[nH]1 |
| 7.62 | COC(=O)C(N)c1ccccc1 (stereo unspecified) |
| 6.08 | Cn1cnnc1-c1ccncc1 |
| 10.2 | O=C(NCc1ccncc1)c1ccc(-c2ccccc2)cc1 |
| 8.82 | Cc1nc2ccc(NC(=S)N(C)C)cc2nc1C |
| 14 | O=C1C(=Cc2ccco2)C(=O)c2ccccc21 |
| 7.31 | c1ccc(CN2CCN(Cc3ccncc3)CC2)nc1 |
| 9.31 | O=c1ccoc2ccccc12 |
| 7.45 | O=C(N=CNC(=O)c1cccnc1)c1cccnc1 |
| 15.9 | CCn1c2ccccc2c2cc(C=Nn3c(C)cc(C)cc3=O)ccc21 |
| 12.2 | O=C(NN=Cc1cccc(O)c1)c1cc2ccccc2cc1O |
| 10.9 | Cc1ccc(NC(=O)c2ccc(N)cc2)cc1 |
| 14.3 | COC(=O)Cn1c(=O)c(-c2ccccc2)nc2ccccc21 |
